Measured values taken from patent US6861070B1, “Medicinal compositions for treating evacuatory insufficiency” (Yamanouchi Pharmaceutical Co., Ltd., priority 1998, dated 2005).
Where a name gives a salt, the structure may show the parent alone.

Test system: patients diagnosed to be voiding dysfunction associated with neurogenic bladder
Test: Clinical test to patients of voiding dysfunction associated with neurogenic bladder
Assay type: in vivo
Method: Test Example 1. Clinical Test to Patients of Voiding Dysfunction Associated with Neurogenic Bladder. Clinical test was carried out under the following conditions to the causes of voiding dysfunction associated with neurogenic bladder. Patients: Sixty patients diagnosed to be voiding dysfunction associated with neurogenic bladder (excluding the cases where the cause was peripheral diseases). Used drug and method of administration: Capsule preparation containing 0.2 mg of tamsulosin hydrochloride or placebo capsule was used and two capsules were orally administered after breakfast (once daily) for four weeks. […] Approximate safety was evaluated as no problem, little problems, some problems and problems according to the presence/absence and degree of side effect, change of blood pressure and pulse rate, and abnormal change in clinical date. Impression by the patient was judged to be much improvement, improvement, some improvement, no change, some worsening, worsening and much worsening. Finally, degree of improvement as a whole, approximate safety and impression by patient were taken into consideration and the final judgement for the Usefulness wan judged to be any of the […]—very useful, useful, somewhat useful and not preferable.

[1] = compared with placebo group, two 0.2 mg capsules orally once daily, four weeks
[2] = share of patients (12/20), two 0.2 mg capsules orally once daily, four weeks
[3] = two 0.2 mg capsules orally once daily after breakfast, four weeks, n = 16
[4] = two 0.2 mg capsules orally once daily after breakfast, four weeks, n = 23

## CCOc1ccccc1OCCN[C@H](C)Cc1ccc(OC)c(S(N)(=O)=O)c1 [Tamsulosin Hydrochloride, (R)(−)-5-{2-{[2-(o-ethoxyphenoxy)ethyl}amino]propyl}-2-methoxybenzene-sulfonamide]
[1]
  Approximate safety (side effect, blood pressure, pulse rate, clinical data): no significant difference
  Impression by patient: no significant difference
Impression by the patients further taken into consideration
  Usefulness as a therapeutic agent (final judgement, in words): useful as a therapeutic agent
Patients suffering from voiding dysfunction associated with neurogenic bladder
  Improvement of subjective symptom and objective observation and improvement as a whole (in words): significant improvement
Share of patients (10/23), two 0.2 mg capsules orally once daily, four weeks
  Degree of Improvement in Subjective Symptoms, ≧Medium Improvement: 43.5%
[2]
  Degree of Improvement as a Whole, ≧Medium Improvement: 60.0%
  Degree of Improvement in Objective Observation, ≧Medium Improvement: 80.0%
Share of patients (12/23), two 0.2 mg capsules orally once daily, four weeks
  Usefulness, ≧Useful: 52.2%
[3]
  Average Urinary Flow (Changing Amt): 1.2 ± 1.66 mL/s
  Maximum Urinary Flow (Changing Amt): 2.5 ± 3.01 mL/s
  Residual Urine Rate (Changing Amt): −13 ± 20.0%
[4]
  Residual Urine Amount (Changing Amt): -18 ± 80.1 mL
  Total Score (Changing Rate) of subjective symptoms (1)-(8): −31 ± 34.2%
